Drawing on US11505533B2, “Metabolically stable N-acylaminooxadiazoles useful as antibacterial agents” (MICROBIOTIX, INC., priority 2017, dated 2022), this text covers MIC for 33 compounds.

Values after ≈ are worked out from the molar mass of the structure shown.

For this assay, the system named is E. coli TolC(−). Nature of the assay: TolC(−) MIC (NB). To be noted: Escherichia coli, read-out: TolC(−) MIC (μM)(NB). It is filed as cell-based.
As usually defined, the MIC is the smallest concentration in the dilution series that meets the test's criterion for growth inhibition. For `CC(=O)N1CCN(C(=O)Nc2nnc(-c3ccc(F)cc3)o2)CC1` [compound 4198], the MIC was at least 100 µM.

On to `O=C(Nc1nnc(-c2ccc(F)cc2)o1)N1CCN2CCCCC2C1` (stereo not drawn) [compound 4199], for which the MIC is at least 100 µM.

In the case of `O=C(Nc1nnc(-c2ccc(F)cc2)o1)N1CCCC2CCCCC21` (stereo not drawn) [compound 4200], the MIC came to 50 µM (≈ 17.2 µg/mL).

`O=C(Nc1nnc(-c2ccc(F)cc2)o1)N1CCN(C(=O)c2ccco2)CC1` [compound 4201]: the MIC is 28.1 µM (≈ 10.8 µg/mL).

As for `O=C(Nc1nnc(-c2ccc(F)cc2)o1)c1ccc(Oc2ccccc2)cn1` [compound 4258], the MIC was determined as 35.4 µM (≈ 13.3 µg/mL).

On to `CC(C)(C)OC(=O)N1CCC(Oc2ccc(C(=O)Nc3nnc(-c4ccc(F)cc4)o3)cc2)CC1` [compound 4289], for which the MIC was 3.51 µM (≈ 1.69 µg/mL).

Take `Cc1cncc(Oc2ccc(C(=O)Nc3nnc(-c4ccc(F)cc4)o3)cc2)n1` [compound 4290]: the MIC was found to be 11.1 µM (≈ 4.36 µg/mL).

As for `O=C(Nc1nnc(-c2ccc(F)cc2)o1)c1cnc(Oc2ccccc2)nc1` [compound 4314], the MIC amounted to 6.25 µM (≈ 2.36 µg/mL).

With `COc1cc2c(cc1OC)CN(C(=O)Nc1nnc(-c3ccc(F)cc3)o1)CC2` [compound 4333], the MIC was found to be 12.5 µM (≈ 4.98 µg/mL).

With `O=C(Nc1nnc(-c2ccc(F)cc2)o1)N1CCCC1` [compound 4346], the minimal inhibitory concentration (MIC) was 100 µM (≈ 27.6 µg/mL).

In the case of `CN1CCCN(C(=O)Nc2nnc(-c3ccc(F)cc3)o2)CC1` [compound 4349], the MIC is at least 100 µM.

As for `O=C1CN(C(=O)Nc2nnc(-c3ccc(F)cc3)o2)CCN1` [compound 4350], the MIC was at least 100 µM.

As for `CN1CCN(C(=O)Nc2nnc(-c3ccc(F)cc3)o2)CC1=O` [compound 4351], the MIC was at least 100 µM.

For the compound `O=C(Nc1nnc(-c2ccc(F)cc2)o1)N1CC2CC(C1)O2` [compound 4380], the MIC is at least 100 µM.

As for `O=C(Nc1nnc(-c2ccc(F)cc2)o1)N1CC2CCC(C1)O2` [compound 4381], the MIC is 100 µM (≈ 31.8 µg/mL).

As to `COCCN1[C@H](C)CN(C(=O)Nc2nnc(-c3ccc(F)cc3)o2)C[C@@H]1C` [compound 4406], the minimum inhibitory concentration (MIC) stood at 50 µM (≈ 18.9 µg/mL).

Consider `Cc1nc2c(s1)CN(C(=O)Nc1nnc(-c3ccc(F)cc3)o1)C2` [compound 4464], for which the minimum inhibitory concentration (MIC) is at least 100 µM.

For `Cc1nnc(NC(=O)c2ccc(Oc3ccccc3)nc2)o1` [compound 4468], the MIC is at least 100 µM.

Regarding `O=C(Nc1nnc(C2CCC2)o1)c1ccc(Oc2ccccc2)nc1` [compound 4469], the MIC came to 12.5 µM (≈ 4.2 µg/mL).

With `O=C(Nc1nnc(-c2ccc(F)cc2)o1)N1Cc2ncsc2C1` [compound 4497], the MIC was at least 100 µM.

As for `CC1CCN(C(=O)Nc2nnc(-c3ccc(F)cc3)o2)CC1` [compound 4684], the minimal inhibitory concentration (MIC) came out at 15.8 µM (≈ 4.79 µg/mL).

For `CC1(C)CCN(C(=O)Nc2nnc(-c3ccc(F)cc3)o2)CC1` [compound 4685], the MIC was 12.5 µM (≈ 3.98 µg/mL).

With `O=C(Nc1nnc(-c2ccc(F)cc2)o1)N1CCC(F)(F)CC1` [compound 4686], the minimum inhibitory concentration (MIC) is 12.5 µM (≈ 4.08 µg/mL).

In the case of `O=C(Nc1nnc(-c2ccc(F)cc2)o1)N1CCOCC1` [compound 4697], the MIC was found to be 100 µM (≈ 29.2 µg/mL).

For the compound `O=C(Nc1nnc(-c2ccc(F)cc2)o1)N1CCC2CCCCC2C1` (stereo not drawn) [compound 4698], the minimum inhibitory concentration (MIC) came out at 8.84 µM (≈ 3.04 µg/mL).

`O=C(Nc1nnc(-c2ccc(F)cc2)o1)N1CCCCC1` [compound 4699]: the MIC turned out to be 25 µM (≈ 7.26 µg/mL).

Turning to `O=C(Nc1nnc(-c2ccc(F)cc2)o1)N1CCCCCC1` [compound 4700], the minimal inhibitory concentration (MIC) was determined as 15.8 µM (≈ 4.79 µg/mL).

Consider `COC(=O)C1CCN(C(=O)Nc2nnc(-c3ccc(F)cc3)o2)CC1` [compound 4701], for which the minimal inhibitory concentration (MIC) came to 50 µM (≈ 17.4 µg/mL).

Consider `O=C(Nc1nnc(-c2ccc(F)cc2)o1)N1CCC(N2CCCCC2)CC1` [compound 4702], for which the MIC was over 100 µM.

Turning to `O=C(Nc1nnc(-c2ccc(F)cc2)o1)N1CCC(O)CC1` [compound 4734], the minimal inhibitory concentration (MIC) turned out to be 100 µM (≈ 30.6 µg/mL).

For `O=C(Nc1nnc(-c2ccc(F)cc2)o1)N1CCC(C(F)(F)F)C1` (stereo not drawn) [compound 4735], the MIC turned out to be 22.3 µM (≈ 7.67 µg/mL).

On to `CC1=C(C)CN(C(=O)Nc2nnc(-c3ccc(F)cc3)o2)CC1` [compound 4738], for which the MIC is 7 µM (≈ 2.21 µg/mL).

`O=C(Nc1nnc(-c2ccc(F)cc2)o1)N1CCC2(CC1)COC2` [compound 4739]: the MIC was 100 µM (≈ 33.2 µg/mL).
